Source: patent US7517884B2 (Kalypsys Inc., priority 1998, dated 2009)

How the values were obtained:
Assay type in all cases: cell-based, murine and human
Conditions in all cases: GAL4-PPAR LBD chimera
PPAR-alpha = biological target: T1, PPAR-alpha (UniProt Q07869); assay: PPAR-alpha transactivation assay (GAL4 chimera, luciferase reporter) in CV-1 cells
T1 sequence (Q07869 1-468): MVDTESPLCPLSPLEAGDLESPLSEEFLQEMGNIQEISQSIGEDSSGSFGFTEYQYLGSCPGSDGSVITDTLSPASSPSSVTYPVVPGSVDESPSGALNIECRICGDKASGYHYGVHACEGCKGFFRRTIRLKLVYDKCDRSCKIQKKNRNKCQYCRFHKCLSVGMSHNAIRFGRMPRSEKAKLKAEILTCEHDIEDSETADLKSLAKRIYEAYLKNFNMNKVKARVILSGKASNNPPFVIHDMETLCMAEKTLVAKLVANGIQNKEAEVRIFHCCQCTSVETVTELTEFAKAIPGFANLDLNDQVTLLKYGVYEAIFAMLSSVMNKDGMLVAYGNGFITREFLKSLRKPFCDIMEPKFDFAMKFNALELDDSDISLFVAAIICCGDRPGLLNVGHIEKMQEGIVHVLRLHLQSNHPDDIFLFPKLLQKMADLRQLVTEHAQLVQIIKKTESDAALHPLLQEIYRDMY
Source text: (§1) Compounds may be screened for functional potency in transient transfection assays in CV-1 cells for their ability to activate the PPAR subtypes (transactivation assay). A previously established chimeric receptor system was utilized to allow comparison of the relative transcriptional activity of the receptor subtypes on the same synthetic response element and to prevent endogenous receptor activation from complicating the interpretation of results. See, for example, Lehmann, J. M.; Moore, L. B.; Smith-Oliver, T. A; Wilkinson, W. O.; Willson, T. M.; Kliewer, S. A., An antidiabetic thiazolidinedione is a high affinity ligand for peroxisome proliferator-activated receptor […], J. Biol. Chem., 1995, 270, 12953-6. The ligand binding domains for murine and human PPAR-alpha, PPAR-gamma, and PPAR-delta are each fused to the yeast transcription factor GAL4 DNA binding domain. CV-1 cells were transiently transfected with expression vectors for the respective PPAR chimera along with a reporter construct containing four or five copies of the GAL4 DNA binding site driving expression of luciferase. After 8-16 h, the cells are replated into multi-well assay plates and the media is exchanged to phenol-red free DME medium supplemented with 5% delipidated calf serum. 4 hours after replating, cells were treated with either compounds or 1% DMSO for 20-24 hours. Luciferase activity was then assayed with Britelite (Perkin Elmer) following the manufacturer's protocol and measured with either the Perkin Elmer Viewlux or Molecular Devices Acquest (see, for example, Kliewer, S. A., et. al. Cell 1995, 83, 813-819). Rosiglitazone is used as a positive control in the PPARγ assay. Wy-14643 and GW7647 are used as positive controls in the PPARα assay. GW501516 is used as the positive control in the PPARδ assay.
(§2) Compounds of Examples 1-141 were assayed to measure their biological activity with respect to their EC50 values for modulating PPAR-alpha, PPAR-gamma, and PPAR-delta as set forth in Table 1.

PPAR-delta = biological target: T2, PPAR-delta (UniProt Q03181); assay: PPAR-delta transactivation assay (GAL4 chimera, luciferase reporter) in CV-1 cells
T2 sequence (Q03181 1-441): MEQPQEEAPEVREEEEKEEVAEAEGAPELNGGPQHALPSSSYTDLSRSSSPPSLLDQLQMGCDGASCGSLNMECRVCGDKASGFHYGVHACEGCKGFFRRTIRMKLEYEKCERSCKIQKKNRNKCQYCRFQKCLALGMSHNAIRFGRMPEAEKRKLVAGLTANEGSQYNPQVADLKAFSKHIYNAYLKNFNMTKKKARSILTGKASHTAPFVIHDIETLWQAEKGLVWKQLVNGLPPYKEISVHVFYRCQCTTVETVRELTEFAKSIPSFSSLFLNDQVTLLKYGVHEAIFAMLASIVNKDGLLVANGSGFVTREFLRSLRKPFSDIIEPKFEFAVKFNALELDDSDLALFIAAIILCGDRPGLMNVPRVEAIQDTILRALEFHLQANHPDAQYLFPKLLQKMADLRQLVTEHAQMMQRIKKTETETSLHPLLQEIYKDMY
Source text: as §1, §2

PPAR-gamma = biological target: T3, PPAR-gamma (UniProt P37231); assay: PPAR-gamma transactivation assay (GAL4 chimera, luciferase reporter) in CV-1 cells
T3 sequence (P37231 1-505): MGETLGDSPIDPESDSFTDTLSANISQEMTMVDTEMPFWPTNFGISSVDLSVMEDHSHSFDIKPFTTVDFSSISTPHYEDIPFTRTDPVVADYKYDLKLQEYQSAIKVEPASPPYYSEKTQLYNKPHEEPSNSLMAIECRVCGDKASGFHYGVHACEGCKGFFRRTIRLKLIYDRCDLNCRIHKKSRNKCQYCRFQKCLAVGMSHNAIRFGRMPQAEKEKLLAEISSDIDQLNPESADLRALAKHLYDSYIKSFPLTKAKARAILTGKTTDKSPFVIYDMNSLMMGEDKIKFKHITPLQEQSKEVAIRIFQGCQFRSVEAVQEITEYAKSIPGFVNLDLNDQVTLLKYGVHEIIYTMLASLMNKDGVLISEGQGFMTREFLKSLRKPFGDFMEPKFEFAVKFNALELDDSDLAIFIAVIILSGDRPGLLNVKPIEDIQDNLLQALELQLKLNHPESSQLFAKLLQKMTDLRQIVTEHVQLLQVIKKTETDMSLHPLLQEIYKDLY
Source text: as §1, §2

| SMILES | EC50 (PPAR-alpha) [µM] | EC50 (PPAR-delta) [µM] | EC50 (PPAR-gamma) [µM] |
| --- | --- | --- | --- |
| C[C@@H]1CN(c2ccc(C(F)(F)F)c(Cl)c2)C[C@H](C)N1S(=O)(=O)c1cccc2c1CC(C(=O)O)C2 (relative stereo) [Example 82, 4-[4-(3-chloro-4-trifluoromethyl-phenyl)-cis-2,6-dimethyl-piperazine-1-sulfonyl]-indan-2-carboxylic acid] | > 100 | < 5 | > 100 |
| O=C(O)C1Cc2cccc(S(=O)(=O)N3CCN(c4ccc(C(F)(F)F)cn4)CC3)c2C1 (single isomer, unassigned) [Example 11] | 5 to 100 | < 5 | < 5 |
| C[C@@H]1CN(c2ccc(C(F)(F)F)cn2)C[C@H](C)N1S(=O)(=O)c1ccc2c(c1)C(C(=O)O)CC2 (single isomer, unassigned) [Example 75, 6-[cis-2,6-dimethyl-4-(5-trifluoromethylpyridin-2-yl)-piperazine-1-sulfonyl]-indan-1-carboxylic acid] | 5 to 100 | < 5 | 5 to 100 |
| C[C@@H]1CN(c2ccc(C(F)(F)F)cn2)C[C@H](C)N1S(=O)(=O)c1ccc2c(c1)C(C(=O)O)CC2 (single isomer, unassigned) [Example 76, 6-[cis-2,6-dimethyl-4-(5-trifluoromethylpyridin-2-yl)-piperazine-1-sulfonyl]-indan-1-carboxylic acid] | > 100 | < 5 | > 100 |
| C[C@@H]1CN(c2ccc(OC(F)(F)F)cc2)C[C@H](C)N1S(=O)(=O)c1cccc2c1CC(C(=O)O)C2 (single isomer, unassigned) [Example 80] | > 100 | < 5 | > 100 |
| CC1CN(S(=O)(=O)c2cccc3c2CC(C(=O)O)C3)C(C)CN1c1ccc(C(F)(F)F)cn1 (single isomer, unassigned) [Example 118, 4-[2S,5S-dimethyl-4-(5-trifluoromethyl-pyridin-2-yl)-piperazine-1-sulfonyl]-indan-2-carboxylic acid] | > 100 | < 5 | 5 to 100 |
| CC1CN(S(=O)(=O)c2cccc3c2CC(C(=O)O)C3)C(C)CN1c1ccc(C(F)(F)F)cn1 (single isomer, unassigned) [Example 119, 4-[2S,5S-dimethyl-4-(5-trifluoromethyl-pyridin-2-yl)-piperazine-1-sulfonyl]-indan-2-carboxylic acid] | > 100 | 5 to 100 | > 100 |
| C[C@@H]1CN(c2ccc(Cl)cc2)C[C@H](C)N1S(=O)(=O)c1cccc2c1CC(C(=O)O)C2 (single isomer, unassigned) [Example 127, 4-(4-(4-chlorophenyl)-cis-2,6-dimethylpiperazin-1-ylsulfonyl)-2,3-dihydro-1H-indene-2-carboxylic acid] | > 100 | < 5 | > 100 |
| C[C@@H]1CN(c2ccc(Cl)cc2)C[C@H](C)N1S(=O)(=O)c1cccc2c1CC(C(=O)O)C2 (single isomer, unassigned) [Example 128, 4-(4-(4-chlorophenyl)-cis-2,6-dimethylpiperazin-1-ylsulfonyl)-2,3-dihydro-1H-indene-2-carboxylic acid] | > 100 | 5 to 100 | > 100 |
| C[C@@H]1CN(c2cccc(OC(F)(F)F)c2)C[C@H](C)N1S(=O)(=O)c1cccc2c1CC(C(=O)O)C2 (single isomer, unassigned) [Example 129, 4-[cis-2,6-dimethyl-4-(3-trifluoromethoxyphenyl)piperazin-1-ylsulfonyl]-2,3-dihydro-1H-indene-2-carboxylic acid] | > 100 | < 5 | > 100 |
| C[C@@H]1CN(c2cccc(OC(F)(F)F)c2)C[C@H](C)N1S(=O)(=O)c1cccc2c1CC(C(=O)O)C2 (single isomer, unassigned) [Example 130, 4-[cis-2,6-dimethyl-4-(3-trifluoromethoxyphenyl)piperazin-1-ylsulfonyl]-2,3-dihydro-1H-indene-2-carboxylic acid] | > 100 | 5 to 100 | > 100 |
| C[C@@H]1CN(c2ccc(C(F)(F)F)c(Cl)c2)C[C@H](C)N1S(=O)(=O)c1cccc2c1CC(C(=O)O)C2 (single isomer, unassigned) [Example 138, 4-(4-(3-chloro-4-(trifluoromethyl)phenyl)-cis-2,6-dimethylpiperazin-1-ylsulfonyl)-2,3-dihydro-1H-indene-2-carboxylic acid] | > 100 | < 5 | > 100 |
| C[C@@H]1CN(c2ccc(C(F)(F)F)c(Cl)c2)C[C@H](C)N1S(=O)(=O)c1cccc2c1CC(C(=O)O)C2 (single isomer, unassigned) [Example 139, 4-(4-(3-chloro-4-(trifluoromethyl)phenyl)-cis-2,6-dimethylpiperazin-1-ylsulfonyl)-2,3-dihydro-1H-indene-2-carboxylic acid] | > 100 | 5 to 100 | > 100 |
| C[C@@H]1CN(Cc2ccc(OC(F)(F)F)cc2)C[C@H](C)N1S(=O)(=O)c1cccc2c1CC(C(=O)O)C2 (single isomer, unassigned) [Example 140] | > 100 | < 5 | 5 to 100 |
| C[C@@H]1CN(Cc2ccc(OC(F)(F)F)cc2)C[C@H](C)N1S(=O)(=O)c1cccc2c1CC(C(=O)O)C2 (single isomer, unassigned) [Example 141] | > 100 | 5 to 100 | > 100 |
| C[C@@H]1[C@H](C)N(c2ccc(C(F)(F)F)cn2)CCN1S(=O)(=O)c1ccc2c(c1)C(C(=O)O)CC2 (stereo in doubt) [Example 86, 6-[2,3-Dimethyl-4-(5-trifluoromethyl-pyridin-2-yl)-piperazine-1-sulfonyl]-indan-1-carboxylic acid] | < 5 | < 5 | < 5 |
| C[C@@H]1[C@H](C)N(c2ccc(C(F)(F)F)cn2)CCN1S(=O)(=O)c1ccc2scc(CC(=O)O)c2c1 (stereo in doubt) [Example 87, {5-[2,3-Dimethyl-4-(5-trifluoromethyl-pyridin-2-yl)-piperazine-1-sulfonyl]-benzo[b]thiophen-3-yl}-acetic acid] | 5 to 100 | < 5 | < 5 |
| O=C(O)CC1Cc2ccc(S(=O)(=O)N3CCN(c4ccc(C(F)(F)F)cc4)CC3)cc2C1 (stereo not drawn) [Example 1, {5-[4-(4-trifluoromethylphenyl)-piperazine-1-sulfonyl]-indan-2-yl}-acetic acid] | 5 to 100 | 5 to 100 | 5 to 100 |
